This note sets out measurements from patent US20240360134A1, “PYRAZOLOPYRIMIDINES AND THEIR USES AS PDGFR INHIBITORS” (priority 2021, published 2024).

One assay deals with VEGFR2, unphosphorylated (Homo sapiens (Human), UniProt P35968). Kind of assay: VEGFR ADP GLO assay. The conditions noted are these: 5 nM VEGFR2, 1.2 mM ATP, 1 mg/mL Srctide, 180 min. Format: biochemical. Put shortly:
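Unphosphorylated kinase (10 nM 2× solution) pre-incubated 30 min at RT with compounds (11-point, 3-fold, top 10 µM), then reacted 180 min with srctide and ATP (2×: 2 mg/mL, 2.4 mM) in HEPES pH 7.5 buffer. ADP read by luminescence. IC50 from 4-parameter fit, normalized to DMSO and 1 µM TAK-593.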

A further assay deals with PDGFRβ (Rattus norvegicus (Rat), UniProt Q05030). Put plainly: PDGFRβ Cellular Assay (PDGFRb P-Y751 HTRF, PDGF-BB stimulated A10 cells). Format: cell-based. A digest of the protocol:
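Rat A10 cells plated overnight were treated with compound for 3 h, stimulated with rat PDGF-BB (working stock 100 ng/mL in 10% FBS medium) for 10 min, then lysed.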
(In general: Time-resolved FRET reads energy transfer from a long-lived donor to a nearby acceptor.)

In assay [1] the target is His6-TEV-PDGFRβ (557-1016) (Homo sapiens (Human), UniProt P09619). Put plainly: PDGFRβ HTRF Assay. Format: biochemical.
The target in assay [2] is Tb-labeled inactive PDGFRβ (Homo sapiens (Human), UniProt P09619). Put plainly: biochemical. Format: binding.
Where [3] appears, read: A10 cells, 3 hours compound, 15 ng/mL PDGFbb for 10 minutes, read-out: PDGFR Cellular IC50.
Where [4] appears, read: 800 μM ATP, 0.5 μM TK-substrate biotin peptide, 30 min pre-incubation, 3 hours reaction, read-out: PDGFR HTRF IC50.

The IC50 is the concentration that gives 50% inhibition.

The structures appear in SMILES notation. Read-outs that look alike come from different tables or passages of the source.

Chain of VEGFR2, unphosphorylated (P35968 whole entry, looked up): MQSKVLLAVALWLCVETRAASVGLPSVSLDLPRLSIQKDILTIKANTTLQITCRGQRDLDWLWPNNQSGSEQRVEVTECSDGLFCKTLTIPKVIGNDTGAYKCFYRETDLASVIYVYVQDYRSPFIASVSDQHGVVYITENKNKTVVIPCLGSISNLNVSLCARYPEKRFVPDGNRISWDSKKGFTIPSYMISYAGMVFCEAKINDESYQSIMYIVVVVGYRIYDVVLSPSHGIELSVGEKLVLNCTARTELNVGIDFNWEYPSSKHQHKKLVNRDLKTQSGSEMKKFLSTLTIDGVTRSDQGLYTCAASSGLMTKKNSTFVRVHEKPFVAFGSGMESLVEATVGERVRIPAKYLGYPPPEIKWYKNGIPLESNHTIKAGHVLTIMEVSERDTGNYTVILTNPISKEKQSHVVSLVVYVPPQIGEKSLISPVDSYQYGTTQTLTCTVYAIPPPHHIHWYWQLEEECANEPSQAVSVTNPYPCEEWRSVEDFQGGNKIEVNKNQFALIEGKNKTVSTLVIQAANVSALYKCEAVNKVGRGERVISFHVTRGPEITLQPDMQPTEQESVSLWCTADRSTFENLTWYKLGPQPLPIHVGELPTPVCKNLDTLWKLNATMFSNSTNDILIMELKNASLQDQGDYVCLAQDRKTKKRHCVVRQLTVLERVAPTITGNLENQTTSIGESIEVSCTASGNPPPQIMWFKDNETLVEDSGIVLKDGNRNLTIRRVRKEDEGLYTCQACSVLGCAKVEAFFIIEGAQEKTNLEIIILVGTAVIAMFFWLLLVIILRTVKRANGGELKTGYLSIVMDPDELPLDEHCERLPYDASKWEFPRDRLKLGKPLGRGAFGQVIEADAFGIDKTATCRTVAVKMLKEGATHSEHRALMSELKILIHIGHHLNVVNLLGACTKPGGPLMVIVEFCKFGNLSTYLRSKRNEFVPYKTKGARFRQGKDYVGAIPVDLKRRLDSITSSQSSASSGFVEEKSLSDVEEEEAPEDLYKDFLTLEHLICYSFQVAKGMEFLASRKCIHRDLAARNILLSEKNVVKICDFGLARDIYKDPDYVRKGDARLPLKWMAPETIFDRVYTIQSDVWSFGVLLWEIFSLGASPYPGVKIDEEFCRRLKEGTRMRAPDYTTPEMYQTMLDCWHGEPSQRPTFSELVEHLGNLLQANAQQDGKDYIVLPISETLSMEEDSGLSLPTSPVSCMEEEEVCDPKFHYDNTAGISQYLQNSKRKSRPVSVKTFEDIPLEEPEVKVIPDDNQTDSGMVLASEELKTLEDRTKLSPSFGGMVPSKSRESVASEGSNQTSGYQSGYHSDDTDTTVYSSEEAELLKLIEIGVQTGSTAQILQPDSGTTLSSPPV
Chain of Tb-labeled inactive PDGFRβ (P09619 whole entry, looked up): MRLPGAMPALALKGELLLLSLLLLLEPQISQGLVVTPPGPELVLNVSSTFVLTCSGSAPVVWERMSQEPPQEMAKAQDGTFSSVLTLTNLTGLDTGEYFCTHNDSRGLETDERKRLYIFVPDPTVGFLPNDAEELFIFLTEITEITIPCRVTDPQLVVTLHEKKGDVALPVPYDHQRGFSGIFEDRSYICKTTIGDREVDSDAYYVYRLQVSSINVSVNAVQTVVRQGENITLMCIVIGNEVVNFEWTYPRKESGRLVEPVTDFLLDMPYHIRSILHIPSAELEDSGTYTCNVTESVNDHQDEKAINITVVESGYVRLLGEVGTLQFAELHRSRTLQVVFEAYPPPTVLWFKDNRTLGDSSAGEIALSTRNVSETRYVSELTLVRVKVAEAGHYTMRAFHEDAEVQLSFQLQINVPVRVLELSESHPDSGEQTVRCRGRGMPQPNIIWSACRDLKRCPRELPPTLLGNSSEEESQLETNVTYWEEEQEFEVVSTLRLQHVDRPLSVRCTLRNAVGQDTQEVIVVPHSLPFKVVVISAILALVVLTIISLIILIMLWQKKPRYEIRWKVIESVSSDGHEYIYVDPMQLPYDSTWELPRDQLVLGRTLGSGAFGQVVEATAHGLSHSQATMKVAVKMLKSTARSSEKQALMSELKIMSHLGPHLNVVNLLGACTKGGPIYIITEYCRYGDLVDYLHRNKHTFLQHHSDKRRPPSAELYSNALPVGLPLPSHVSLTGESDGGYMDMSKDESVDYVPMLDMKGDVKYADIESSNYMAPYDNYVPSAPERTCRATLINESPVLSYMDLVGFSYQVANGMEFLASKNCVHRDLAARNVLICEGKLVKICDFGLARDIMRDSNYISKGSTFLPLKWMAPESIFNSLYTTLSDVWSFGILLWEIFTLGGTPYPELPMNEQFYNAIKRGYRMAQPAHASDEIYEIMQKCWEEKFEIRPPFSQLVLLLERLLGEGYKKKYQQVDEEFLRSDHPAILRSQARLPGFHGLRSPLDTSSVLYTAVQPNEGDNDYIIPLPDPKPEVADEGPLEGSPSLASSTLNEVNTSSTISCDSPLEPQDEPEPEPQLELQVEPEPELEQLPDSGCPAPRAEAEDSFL
Chain of His6-TEV-PDGFRβ (557-1016) (P09619 whole entry, looked up): as above
Chain of PDGFRβ (Q05030 whole entry, looked up): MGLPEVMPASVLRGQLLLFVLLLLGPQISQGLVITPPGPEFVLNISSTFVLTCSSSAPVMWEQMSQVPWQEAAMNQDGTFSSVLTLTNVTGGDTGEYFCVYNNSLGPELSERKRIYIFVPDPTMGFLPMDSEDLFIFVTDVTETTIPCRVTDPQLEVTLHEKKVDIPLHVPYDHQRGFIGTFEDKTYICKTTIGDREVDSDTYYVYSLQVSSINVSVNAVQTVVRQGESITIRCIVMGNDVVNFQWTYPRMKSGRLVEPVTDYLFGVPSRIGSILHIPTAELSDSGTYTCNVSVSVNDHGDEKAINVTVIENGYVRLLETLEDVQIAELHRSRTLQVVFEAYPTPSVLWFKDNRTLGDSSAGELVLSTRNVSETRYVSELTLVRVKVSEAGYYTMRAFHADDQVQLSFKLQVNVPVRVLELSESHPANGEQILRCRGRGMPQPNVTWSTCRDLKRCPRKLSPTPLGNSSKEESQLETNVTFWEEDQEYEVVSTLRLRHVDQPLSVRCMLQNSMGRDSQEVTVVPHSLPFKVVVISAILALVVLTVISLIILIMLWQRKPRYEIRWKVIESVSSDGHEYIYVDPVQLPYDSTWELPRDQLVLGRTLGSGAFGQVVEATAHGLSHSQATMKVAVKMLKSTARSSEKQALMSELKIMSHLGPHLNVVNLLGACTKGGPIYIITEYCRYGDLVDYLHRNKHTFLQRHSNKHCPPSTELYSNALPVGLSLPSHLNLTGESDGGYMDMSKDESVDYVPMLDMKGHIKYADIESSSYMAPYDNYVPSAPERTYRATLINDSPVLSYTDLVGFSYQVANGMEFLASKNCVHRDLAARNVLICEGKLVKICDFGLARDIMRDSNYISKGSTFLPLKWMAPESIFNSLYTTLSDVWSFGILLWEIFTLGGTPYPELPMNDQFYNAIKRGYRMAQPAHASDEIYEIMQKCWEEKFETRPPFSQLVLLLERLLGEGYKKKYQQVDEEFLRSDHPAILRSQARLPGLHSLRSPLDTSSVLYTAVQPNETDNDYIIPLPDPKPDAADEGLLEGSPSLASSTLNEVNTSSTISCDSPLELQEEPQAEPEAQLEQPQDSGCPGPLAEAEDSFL

For `Cc1cc(C(=O)NCCN2CCCOCC2)sc1Nc1nn(C)c2nc(Nc3cnn(C)c3)ncc12` [Example 62, N-(2-(1,4-oxazepan-4-yl)ethyl)-4-methyl-5-((1-methyl-6-((1-methyl-1H-pyrazol-4-yl)amino)-1H-pyrazolo[3,4-d]pyrimidin-3-yl)amino)thiophene-2-carboxamide], the IC50 on VEGFR2, unphosphorylated is more than 7500 nM; on PDGFRβ (setting [3]), 64.7 nM; in assay [1] (setting [4]) it was 0.83 nM; in assay [2] (read-out: PDGFR Lantha IC50), 12.1 nM.

Take `Cn1cc(Nc2ncc3c(Nc4cc(C(=O)NCCN5CCC(F)(F)CC5)ccc4F)nn(C)c3n2)cn1` [Example 63, N-(2-(4,4-difluoropiperidin-1-yl)ethyl)-4-fluoro-3-((1-methyl-6-((1-methyl-1H-pyrazol-4-yl)amino)-1H-pyrazolo[3,4-d]pyrimidin-3-yl)amino)benzamide]: the half-maximal inhibitory concentration (IC50) at VEGFR2, unphosphorylated came to 582 nM; at PDGFRβ (setting [3]), 1.6 nM; in assay [1] (setting [4]) it was 0.2 nM; in assay [2] (read-out: PDGFR Lantha IC50) it was 0.89 nM.

With `Cc1ccc(C(=O)NCCN2CC(C)(C)C2)cc1Nc1nn(C)c2nc(Nc3cnn(C)c3)ncc12` [Example 64, N-(2-(3,3-dimethylazetidin-1-yl)ethyl)-4-methyl-3-((1-methyl-6-((1-methyl-1H-pyrazol-4-yl)amino)-1H-pyrazolo[3,4-d]pyrimidin-3-yl)amino)benzamide], the IC50 at VEGFR2, unphosphorylated amounted to 1030 nM; at PDGFRβ (setting [3]) it was 8.9 nM; in assay [1] (setting [4]) it was 0.26 nM; in assay [2] (read-out: PDGFR Lantha IC50), 2.1 nM.

For `Cc1ccc(C(=O)NCCN2CCC[C@@H]2C)cc1Nc1nn(C)c2nc(Nc3cnn(C)c3)ncc12` [Example 65, (S)-4-methyl-3-((1-methyl-6-((1-methyl-1H-pyrazol-4-yl)amino)-1H-pyrazolo[3,4-d]pyrimidin-3-yl)amino)-N-(2-(2-methylpyrrolidin-1-yl)ethyl)benzamide], the IC50 was determined as 2400 nM against VEGFR2, unphosphorylated; 10 nM on PDGFRβ (setting [3]); 0.22 nM in assay [1] (setting [4]); 2.1 nM in assay [2] (read-out: PDGFR Lantha IC50).

Consider `Cc1ccc(C(=O)NCCN2CCCC2(C)C)cc1Nc1nn(C)c2nc(Nc3cnn(C)c3)ncc12` [Example 66, N-(2-(2,2-dimethylpyrrolidin-1-yl)ethyl)-4-methyl-3-((1-methyl-6-((1-methyl-1H-pyrazol-4-yl)amino)-1H-pyrazolo[3,4-d]pyrimidin-3-yl)amino)benzamide], for which the IC50 on VEGFR2, unphosphorylated is 1330 nM; on PDGFRβ (setting [3]) it was 3.4 nM; in assay [1] (setting [4]), 0.28 nM; in assay [2] (read-out: PDGFR Lantha IC50), 2.3 nM.

As for `Cc1ccc(C(=O)NCCN2CCC3(CC3)C2)cc1Nc1nn(C)c2nc(Nc3cnn(C)c3)ncc12` [Example 67, N-(2-(5-azaspiro[2.4]heptan-5-yl)ethyl)-4-methyl-3-((1-methyl-6-((1-methyl-1H-pyrazol-4-yl)amino)-1H-pyrazolo[3,4-d]pyrimidin-3-yl)amino)benzamide], the IC50 at VEGFR2, unphosphorylated amounted to 1660 nM; on PDGFRβ (setting [3]), 9.8 nM; in assay [1] (setting [4]) it was 0.22 nM; in assay [2] (read-out: PDGFR Lantha IC50) it was 1.9 nM.

Take `Cc1ncc(C(=O)NCCN2[C@H](C)CCC[C@@H]2C)cc1Nc1nn(C)c2cc(Nc3cnn(C)c3)ncc12` [Example 68, N-(2-((2S,6R)-2,6-dimethylpiperidin-1-yl)ethyl)-6-methyl-5-((1-methyl-6-((1-methyl-1H-pyrazol-4-yl)amino)-1H-pyrazolo[4,3-c]pyridin-3-yl)amino)nicotinamide]: the concentration for half-maximal inhibition (IC50) at VEGFR2, unphosphorylated is more than 7500 nM; against PDGFRβ, 112 nM; in assay [1] it was 1.98 nM; in assay [2] it was 33.9 nM.

Consider `Cc1ncc(C(=O)NCCN2CCCC2(C)C)cc1Nc1nn(C)c2cc(Nc3cnn(C)c3)ncc12` [Example 69, N-(2-(2,2-dimethylpyrrolidin-1-yl)ethyl)-6-methyl-5-((1-methyl-6-((1-methyl-1H-pyrazol-4-yl)amino)-1H-pyrazolo[4,3-c]pyridin-3-yl)amino)nicotinamide], for which the IC50 on VEGFR2, unphosphorylated was more than 7500 nM; at PDGFRβ (setting [3]) it was 36.9 nM; in assay [1] (setting [4]), 1.27 nM; in assay [2] (read-out: PDGFR Lantha IC50), 48.4 nM.

`Cc1ncc(NC(=O)CN2CCCC2(C)C)cc1Nc1nn(C)c2nc(Nc3cnn(C)c3)ncc12` [Example 70, 2-(2,2-dimethylpyrrolidin-1-yl)-N-(6-methyl-5-((1-methyl-6-((1-methyl-1H-pyrazol-4-yl)amino)-1H-pyrazolo[3,4-d]pyrimidin-3-yl)amino)pyridin-3-yl)acetamide]: the IC50 on VEGFR2, unphosphorylated stood at 6170 nM; on PDGFRβ (setting [3]) it was 0.9 nM; in assay [1] (setting [4]), 0.2 nM; in assay [2] (read-out: PDGFR Lantha IC50) it was 1.8 nM.

For `Cc1ncc(NC(=O)CN2CC(C)(C)C2)cc1Nc1nn(C)c2nc(Nc3cnn(C)c3)ncc12` [Example 77, 2-(3,3-dimethylazetidin-1-yl)-N-(6-methyl-5-((1-methyl-6-((1-methyl-1H-pyrazol-4-yl)amino)-1H-pyrazolo[3,4-d]pyrimidin-3-yl)amino)pyridin-3-yl)acetamide], the concentration for half-maximal inhibition (IC50) against VEGFR2, unphosphorylated came out at 5110 nM; at PDGFRβ (setting [3]) it was 2.4 nM; in assay [1] (setting [4]), 0.24 nM; in assay [2] (read-out: PDGFR Lantha IC50) it was 1.9 nM.

As to `CC[C@H]1COCCN1CCNC(=O)c1cnc(C)c(Nc2nn(C)c3nc(Nc4cnn(C)c4)ncc23)c1` [Example 81, (S)—N-(2-(3-ethylmorpholino)ethyl)-6-methyl-5-((1-methyl-6-((1-methyl-1H-pyrazol-4-yl)amino)-1H-pyrazolo[3,4-d]pyrimidin-3-yl)amino)nicotinamide], the IC50 against VEGFR2, unphosphorylated stood at 2500 nM; at PDGFRβ it was 21.1 nM; in assay [1], 0.42 nM; in assay [2], 2.6 nM.

As to `Cc1ncc(C(=O)NCCN2CCCC[C@H]2C)cc1Nc1nn(C)c2nc(Nc3cnn(C)c3)ncc12` [Example 82, (R)-6-methyl-5-((1-methyl-6-((1-methyl-1H-pyrazol-4-yl)amino)-1H-pyrazolo[3,4-d]pyrimidin-3-yl)amino)-N-(2-(2-methylpiperidin-1-yl)ethyl)nicotinamide], the IC50 was more than 7500 nM against VEGFR2, unphosphorylated; 20.2 nM against PDGFRβ; 0.18 nM in assay [1]; 1.7 nM in assay [2].

On to `COCCN(CCNC(=O)c1cnc(C)c(Nc2nn(C)c3nc(Nc4cnn(C)c4)ncc23)c1)C1CCC1` [Example 84, N-(2-(cyclobutyl(2-methoxyethyl)amino)ethyl)-6-methyl-5-((1-methyl-6-((1-methyl-1H-pyrazol-4-yl)amino)-1H-pyrazolo[3,4-d]pyrimidin-3-yl)amino)nicotinamide], for which the IC50 on VEGFR2, unphosphorylated was more than 7500 nM; at PDGFRβ (setting [3]), 11.1 nM; in assay [1] (setting [4]), 0.39 nM; in assay [2] (read-out: PDGFR Lantha IC50), 3.6 nM.

Regarding `Cc1ncc(C(=O)NCCN2CC3CCC2CC3)cc1Nc1nn(C)c2nc(Nc3cnn(C)c3)ncc12` [Example 85, N-(2-(2-azabicyclo[2.2.2]octan-2-yl)ethyl)-6-methyl-5-((1-methyl-6-((1-methyl-1H-pyrazol-4-yl)amino)-1H-pyrazolo[3,4-d]pyrimidin-3-yl)amino)nicotinamide], the IC50 against VEGFR2, unphosphorylated stood at 6600 nM; at PDGFRβ (setting [3]), 71.3 nM; in assay [1] (setting [4]), 0.27 nM; in assay [2] (read-out: PDGFR Lantha IC50), 1.7 nM.

As for `Cc1ncc(C(=O)NCCN2CCC(C)(C)C2)cc1Nc1nn(C)c2nc(Nc3cnn(C)c3)ncc12` [Example 86, N-(2-(3,3-dimethylpyrrolidin-1-yl)ethyl)-6-methyl-5-((1-methyl-6-((1-methyl-1H-pyrazol-4-yl)amino)-1H-pyrazolo[3,4-d]pyrimidin-3-yl)amino)nicotinamide], the IC50 at VEGFR2, unphosphorylated is more than 7500 nM; on PDGFRβ (setting [3]), 18.2 nM; in assay [1] (setting [4]) it was 0.33 nM; in assay [2] (read-out: PDGFR Lantha IC50), 2.2 nM.

For `Cc1ncc(C(=O)NCCN2CC(C)CC(C)C2)cc1Nc1nn(C)c2nc(Nc3cnn(C)c3)ncc12` (stereo not drawn) [Example 87, N-(2-(3,5-dimethylpiperidin-1-yl)ethyl)-6-methyl-5-((1-methyl-6-((1-methyl-1H-pyrazol-4-yl)amino)-1H-pyrazolo[3,4-d]pyrimidin-3-yl)amino)nicotinamide], the IC50 against VEGFR2, unphosphorylated was more than 7500 nM; at PDGFRβ (setting [3]) it was 11.5 nM; in assay [1] (setting [4]) it was 0.29 nM; in assay [2] (read-out: PDGFR Lantha IC50), 2.3 nM.

As to `CC[C@@H]1CN(CCNC(=O)c2cnc(C)c(Nc3nn(C)c4nc(Nc5cnn(C)c5)ncc34)c2)CCO1` [Example 88, (R)—N-(2-(2-ethylmorpholino)ethyl)-6-methyl-5-((1-methyl-6-((1-methyl-1H-pyrazol-4-yl)amino)-1H-pyrazolo[3,4-d]pyrimidin-3-yl)amino)nicotinamide], the IC50 was more than 7500 nM at VEGFR2, unphosphorylated; 22.3 nM on PDGFRβ (setting [3]); 0.35 nM in assay [1] (setting [4]); 3 nM in assay [2] (read-out: PDGFR Lantha IC50).

Turning to `Cc1ncc(C(=O)NCCN2C3CCCC2CCC3)cc1Nc1nn(C)c2nc(Nc3cnn(C)c3)ncc12` [Example 89, N-(2-(9-azabicyclo[3.3.1]nonan-9-yl)ethyl)-6-methyl-5-((1-methyl-6-((1-methyl-1H-pyrazol-4-yl)amino)-1H-pyrazolo[3,4-d]pyrimidin-3-yl)amino)nicotinamide], the IC50 is 4090 nM on VEGFR2, unphosphorylated; 33.3 nM on PDGFRβ (setting [3]); 0.33 nM in assay [1] (setting [4]); 2.8 nM in assay [2] (read-out: PDGFR Lantha IC50).
